These results are taken from PubChem BioAssay AID256 (DTP/NCI, 2004).

The subject of this test is CD2F1 mice, L1210 leukemia ip, survival T/C. The experiment in a line: NCI In Vivo Anticancer Drug Screen. Data for tumor model L1210 Leukemia (intraperitoneal) in CD2F1 (CDF1) mice. As to conditions: higher = longer survival. The method in brief:
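Vehicle-treated tumor-bearing mice served as controls (C) for compound-treated mice (T). Reported figure is T divided by C.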

Setting [1] is: endpoint: mean survival time, dose: 25.0 mg/kg/injection, schedule: Q01DX009 (ip), vehicle: saline with Tween-80.
Where [2] appears, read: endpoint: mean survival time, dose: 50.0 mg/kg/injection, schedule: Q01DX009 (ip), vehicle: saline with Tween-80.
Setting [3] is: endpoint: mean survival time, dose: 100.0 mg/kg/injection, schedule: Q01DX009 (ip), vehicle: saline with Tween-80.
Where [4] appears, read: endpoint: mean survival time, dose: 100.0 mg/kg/injection, schedule: Q01DX009 (ip), vehicle: Klucel (hydroxypropylcellulose) (HPC).
Where [5] appears, read: endpoint: mean survival time, dose: 200.0 mg/kg/injection, schedule: Q01DX009 (ip), vehicle: Klucel (hydroxypropylcellulose) (HPC).
Setting [6] is: endpoint: mean survival time, dose: 400.0 mg/kg/injection, schedule: Q01DX009 (ip), vehicle: Klucel (hydroxypropylcellulose) (HPC).
Where [7] appears, read: endpoint: mean survival time, dose: 200.0 mg/kg/injection, schedule: Q01DX009 (ip), vehicle: saline with Tween-80.
[8] abbreviates: endpoint: mean survival time, dose: 400.0 mg/kg/injection, schedule: Q01DX009 (ip), vehicle: saline with Tween-80.
Setting [9] is: endpoint: mean survival time, dose: 100.0 mg/kg/injection, schedule: Q04DX003 (ip), vehicle: saline with Tween-80.
[10] abbreviates: endpoint: mean survival time, dose: 200.0 mg/kg/injection, schedule: Q04DX003 (ip), vehicle: saline with Tween-80.
Where [11] appears, read: endpoint: mean survival time, dose: 400.0 mg/kg/injection, schedule: Q04DX003 (ip), vehicle: saline with Tween-80.
The mark [12] stands for this setting: endpoint: mean survival time, dose: 100.0 mg/kg/injection, schedule: Q01DX001 (ip), vehicle: saline.
Where [13] appears, read: endpoint: mean survival time, dose: 200.0 mg/kg/injection, schedule: Q01DX001 (ip), vehicle: saline.
Setting [14] is: endpoint: mean survival time, dose: 400.0 mg/kg/injection, schedule: Q01DX001 (ip), vehicle: saline.

Several values for one entry are separate records, joined by “and”; a condition that tells them apart may be missing. Equal entries are not always repeated. Inconclusive results and toxic doses are left out.

With `CCOc1ccccc1OC(=O)Nc1ccc(OC)cc1`, the T/C was 97 % of control under setting [1]; 114 % of control (endpoint: mean survival time, dose: 25.0 mg/kg/injection, schedule: Q04DX002 (ip), vehicle: saline with Tween-80); 89 % of control under setting [2]; 104 % of control (endpoint: mean survival time, dose: 50.0 mg/kg/injection, schedule: Q04DX002 (ip), vehicle: saline with Tween-80); 97 % of control under setting [3]; 94 % of control and 107 % of control (endpoint: mean survival time, dose: 100.0 mg/kg/injection, schedule: Q04DX002 (ip), vehicle: saline with Tween-80). Besides, where the note is “endpoint: mean survival time, dose: 400.0 mg/kg/injection, schedule: Q04DX002 (ip), vehicle: saline with Tween-80”, the T/C is 98 % of control.

With `CC(C)(C)C1CCCCC1`, the T/C by setting is: (endpoint: mean survival time, dose: 12.5 mg/kg/injection, schedule: Q01DX009 (ip), vehicle: Klucel (hydroxypropylcellulose) (HPC)) 90 % of control and 101 % of control; (endpoint: mean survival time, dose: 25.0 mg/kg/injection, schedule: Q01DX009 (ip), vehicle: Klucel (hydroxypropylcellulose) (HPC)) 90 % of control and 98 % of control; (endpoint: mean survival time, dose: 50.0 mg/kg/injection, schedule: Q01DX009 (ip), vehicle: Klucel (hydroxypropylcellulose) (HPC)) 93 % of control and 101 % of control; under setting [4], 88 % of control and 98 % of control; under setting [5], 91 % of control and 98 % of control; under setting [6], 93 % of control.

For `O=c1c2[nH]cnc2ncn1C1CCCC1`, the T/C was 100 % of control (endpoint: mean survival time, dose: 100.0 mg/kg/injection, schedule: Q01DX001 (ip), vehicle: other); 100 % of control (endpoint: mean survival time, dose: 200.0 mg/kg/injection, schedule: Q01DX001 (ip), vehicle: other); 101 % of control (endpoint: mean survival time, dose: 400.0 mg/kg/injection, schedule: Q01DX001 (ip), vehicle: other).

Consider `CCNC(=O)Nc1nc2ccccc2[nH]1`, for which the T/C under setting [2] was 101 % of control.

Take `CCOC(=O)CN(CC(=O)OCC)c1ccc(C(C)=O)cc1`: the T/C is 105 % of control (endpoint: mean survival time, dose: 100.0 mg/kg/injection, schedule: Q04DX003 (ip), vehicle: saline) and 94 % of control (endpoint: mean survival time, dose: 200.0 mg/kg/injection, schedule: Q04DX003 (ip), vehicle: saline).

In the case of `O=C1C(Cl)=C(Cl)C(=O)C(Cl)=C1Cl`, the T/C was 101 % of control under setting [1], 102 % of control under setting [2] and 98 % of control under setting [3].

As for `[Cl][Pt+2][Cl].[NH-]C1CC1.[NH2-]`, the T/C (endpoint: mean survival time, dose: 0.39 mg/kg/injection, schedule: Q04DX003 (ip), vehicle: saline) is 101 % of control; the T/C (endpoint: mean survival time, dose: 0.78 mg/kg/injection, schedule: Q04DX003 (ip), vehicle: saline) is 103 % of control and 104 % of control; the T/C (endpoint: mean survival time, dose: 1.56 mg/kg/injection, schedule: Q04DX003 (ip), vehicle: saline) is 121 % of control and 108 % of control; the T/C (endpoint: mean survival time, dose: 3.12 mg/kg/injection, schedule: Q04DX003 (ip), vehicle: saline with Tween-80) was 124 % of control.

Turning to `COc1cccc(OC)c1C(c1c(OC)cccc1OC)c1c(OC)cccc1OC`, the T/C is 98 % of control under setting [3], 103 % of control under setting [7] and 102 % of control under setting [8].

For `CCOC(=O)C(C#N)C(C(C)=O)C(=O)OCC` (stereo not given), the T/C reads like this: (endpoint: mean survival time, dose: 25.0 mg/kg/injection, schedule: Q04DX003 (ip), vehicle: saline with Tween-80) 103 % of control; (endpoint: mean survival time, dose: 50.0 mg/kg/injection, schedule: Q04DX003 (ip), vehicle: saline with Tween-80) 98 % of control; under setting [9], 97 % of control.

Regarding `CC(=O)Nc1cc(C)ccc1O`, the T/C was 98 % of control under setting [3]; 96 % of control under setting [9]; 95 % of control under setting [7]; 104 % of control under setting [10]; 87 % of control under setting [8]; 90 % of control under setting [11].

As to `COc1ccc(OC)c(NC(=O)Oc2ccc(F)cc2Cl)c1`, the T/C under setting [3] is 101 % of control, the T/C under setting [7] is 104 % of control and the T/C under setting [8] is 102 % of control.

Turning to `CCC(C)(C)C(=O)O`, the T/C was 100 % of control under setting [9], 103 % of control under setting [10] and 105 % of control under setting [11].

On to `OC12CC3C4CC(O1)C1C4CC3C12` (stereo not given), for which the T/C runs as follows: under setting [12], 100 % of control; under setting [13], 96 % of control; under setting [14], 96 % of control.

As to `CC1CC(O)C(N)C(O)C1` (stereo not given), the T/C is, setting by setting: under setting [12], 103 % of control; under setting [13], 98 % of control; under setting [14], 98 % of control.

In the case of `O=NN(CCCl)C(=O)/N=N/C(=O)N(CCCl)N=O`, the T/C by setting is: (endpoint: median survival time, dose: 3.12 mg/kg/injection, schedule: Q01DX001 (ip), vehicle: water) 100 % of control; (endpoint: median survival time, dose: 6.25 mg/kg/injection, schedule: Q01DX001 (ip), vehicle: water) 98 % of control; (endpoint: median survival time, dose: 12.5 mg/kg/injection, schedule: Q01DX001 (ip), vehicle: water) 113 % of control; (endpoint: median survival time, dose: 25.0 mg/kg/injection, schedule: Q01DX001 (ip), vehicle: water) 103 % of control and 105 % of control; (endpoint: median survival time, dose: 50.0 mg/kg/injection, schedule: Q01DX001 (ip), vehicle: water) 98 % of control and 112 % of control; (endpoint: median survival time, dose: 100.0 mg/kg/injection, schedule: Q01DX001 (ip), vehicle: water) 115 % of control (2×) and 122 % of control.

`CCc1ccccc1OS(=O)(=O)c1cccc([N+](=O)[O-])c1`: the T/C was 96 % of control under setting [3]; 99 % of control under setting [9]; 98 % of control under setting [7]; 100 % of control under setting [10]; 98 % of control under setting [8]; 99 % of control under setting [11].

For `CC(C)(C)CC(C)(C)c1ccc(OCCOc2ccc(NS(=O)(=O)c3ccc(N)cc3)cc2)cc1`, the T/C reads like this: under setting [4], 95 % of control; under setting [9], 97 % of control; under setting [5], 96 % of control; under setting [10], 97 % of control; under setting [6], 93 % of control; under setting [11], 95 % of control.

With `c1ccc2c(c1)Nc1ccccc1S2`, the T/C reads like this: under setting [3], 92 % of control; under setting [9], 98 % of control; under setting [7], 92 % of control; under setting [10], 108 % of control; under setting [8], 89 % of control; under setting [11], 101 % of control.

Turning to `CC(=O)c1cccc(OCc2ccccc2)c1`, the T/C (endpoint: mean survival time, dose: 100.0 mg/kg/injection, schedule: Q04DX003 (ip), vehicle: other) was 96 % of control and the T/C (endpoint: mean survival time, dose: 200.0 mg/kg/injection, schedule: Q04DX003 (ip), vehicle: other) is 96 % of control.

As for `C[n+]1c2ccccc2c(Cl)c2ccccc21`, the T/C was 104 % of control (endpoint: mean survival time, dose: 100.0 mg/kg/injection, schedule: Q01DX001 (ip), vehicle: saline with Tween-80) and 109 % of control (endpoint: mean survival time, dose: 200.0 mg/kg/injection, schedule: Q01DX001 (ip), vehicle: saline with Tween-80).

For the compound `CCOC(OCC)C(=O)OCC(=O)[C@]1(O)Cc2c(O)c3c(c(O)c2[C@@H](OC2CC(N)C(O)C(C)O2)C1)C(=O)c1c(OC)cccc1C3=O` (stereo not given in full), the T/C is, setting by setting: (endpoint: mean survival time, dose: 0.13 mg/kg/injection, schedule: Q01DX009 (ip), vehicle: saline) 104 % of control; (endpoint: mean survival time, dose: 0.25 mg/kg/injection, schedule: Q01DX009 (ip), vehicle: saline) 118 % of control and 107 % of control; (endpoint: mean survival time, dose: 0.5 mg/kg/injection, schedule: Q01DX009 (ip), vehicle: saline) 110 % of control; (endpoint: mean survival time, dose: 1.0 mg/kg/injection, schedule: Q01DX009 (ip), vehicle: saline) 174 % of control; (endpoint: mean survival time, dose: 2.0 mg/kg/injection, schedule: Q01DX009 (ip), vehicle: saline) 160 % of control; (endpoint: mean survival time, dose: 4.0 mg/kg/injection, schedule: Q01DX009 (ip), vehicle: saline) 104 % of control.

On to `NC(=S)c1cc(C(N)=S)[nH]n1`, for which the T/C is, setting by setting: (endpoint: mean survival time, dose: 6.25 mg/kg/injection, schedule: Q01DX005 (ip), vehicle: other) 101 % of control; (endpoint: mean survival time, dose: 12.5 mg/kg/injection, schedule: Q01DX005 (ip), vehicle: other) 97 % of control; (endpoint: mean survival time, dose: 25.0 mg/kg/injection, schedule: Q01DX005 (ip), vehicle: other) 93 % of control; (endpoint: mean survival time, dose: 50.0 mg/kg/injection, schedule: Q01DX005 (ip), vehicle: other) 95 % of control.

For `O=C(O)C1CCCCC1c1c2ccc(=O)cc-2oc2cc(O)ccc12` (stereo not given), the T/C reads like this: under setting [9], 104 % of control; under setting [10], 92 % of control; under setting [11], 92 % of control.

On to `COC(=O)CSC(=S)N(C)C`, for which the T/C is 98 % of control under setting [9], 100 % of control under setting [10] and 90 % of control under setting [11].

As to `NC(=S)Nc1ccc(C(=O)O)cc1`, the T/C reads like this: under setting [3], 96 % of control; under setting [9], 93 % of control; under setting [7], 100 % of control; under setting [10], 94 % of control; under setting [8], 86 % of control; under setting [11], 90 % of control.
